Test results as given in ChEMBL document CHEMBL1201862, “PubChem BioAssay data set” (2004).
Blank lines part the entries; values can stand above or below the compound they belong to. Calls of active or inactive are those of the source.

Experiments:
[1] = HEK293 Cytotoxicity Assay Measured in Cell-Based System Using Plate Reader - 7071-01_Inhibitor_Dose_CherryPick_Activity_Set2.; type: functional
HEK293 = assay: viability loss in HEK293T cells – cell-based, ATP luminescence, cherry-pick samples, cytotoxicity control, dose response (AID 687005); type: functional; settings: Homo sapiens;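 note: cells exposed to compound for 48 hours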
[2] = A2780 cell killing – plate reader, dry powder samples, cytotoxicity control, dose response (AID 743046); type: functional, cell-based
[3] = OVCAR8 cell viability loss – plate reader, dry powder samples, PAX8 project, dose response (AID 743197); type: functional, cell-based; settings: OVCAR-8
[4] = IGROV1 cell killing – plate reader, dry powder samples, PAX8 inhibitor project, dose response (AID 743043); type: functional, cell-based; settings: IGROV-1
Paired box protein Pax-8 = Paired box protein Pax-8 (Homo sapiens, UniProt Q06710); assay: PAX8 transcriptional activity inhibition in RMG-I – RMG-I cells, luciferase, cherry-pick, dose response (AID 687027); type: functional, cell-based;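 note: luciferase reporter driven by Pax8 target thyroperoxidase promoter measured by SteadyGlo luminescence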
[5] = OVCAR-3 cell viability loss – plate reader, dry powder samples, PAX8 inhibitor project, dose response (AID 743044); type: functional, cell-based
[6] = reduced cellular PGC1a acetyl-lysine signal – cell-based, cherry-picked samples, dose response (AID 720514); type: functional;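 note: potency may reflect raised or lowered acetylation signal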
[7] = viability loss in HEK293 kidney cells – cell-based, cherry-picks, set 5, cytotoxicity control, dose response (AID 1053117); type: functional
[8] = biological target: T1, Low molecular weight phosphotyrosine protein phosphatase (Homo sapiens, UniProt P24666); assay: inhibition of LMPTP-A enzymatic activity – biochemical, OMFP substrate, fluorescence intensity, set 2, dose response (AID 743307); type: functional
T1 sequence (P24666 whole entry): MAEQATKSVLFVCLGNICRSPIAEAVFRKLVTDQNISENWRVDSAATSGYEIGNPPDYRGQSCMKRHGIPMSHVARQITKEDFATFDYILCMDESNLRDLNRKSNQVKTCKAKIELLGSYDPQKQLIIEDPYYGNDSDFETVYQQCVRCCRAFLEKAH

[9] = biological target: T1, Low molecular weight phosphotyrosine protein phosphatase; assay: inhibition of human LMPTP enzyme activity – biochemical, absorbance, pNPP substrate, LMPTP-A isoform, set 2, orthogonal assay, dose response (AID 743308); type: functional
[10] = growth inhibition of yeast DHODH-expressing 3D7 parasites – SYBR Green, dry powder samples, dose response (AID 1159570); type: functional, cell-based;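 note: parasite growth measured after 72 hours of compound exposure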
[11] = Dd2 malaria parasite growth inhibition potency – SYBR Green, dry powder samples, dose response (AID 1159566); type: functional, cell-based;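 note: potency for growth inhibition with lower SYBR green DNA signal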
[12] = toxicity to human HepG2 hepatoma cells – cell-based, plate reader, dry powder samples, cytotoxicity control, dose response (AID 1159569); type: functional;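 note: inhibitor potency with signal falling toward the positive control level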
[13] = growth inhibition of PfATP4-mutant resistant parasites – NITD609-resistant line, SYBR Green, dry powder, dose response (AID 1159571); type: functional, cell-based;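 note: parasites synchronized at ring stage by sorbitol before testing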
[14] = P. falciparum Dd2 growth inhibitors, dose response, SYBR Green, cherry-picked samples (AID 1159567); type: functional, cell-based

Chain of Paired box protein Pax-8 (Q06710 whole entry): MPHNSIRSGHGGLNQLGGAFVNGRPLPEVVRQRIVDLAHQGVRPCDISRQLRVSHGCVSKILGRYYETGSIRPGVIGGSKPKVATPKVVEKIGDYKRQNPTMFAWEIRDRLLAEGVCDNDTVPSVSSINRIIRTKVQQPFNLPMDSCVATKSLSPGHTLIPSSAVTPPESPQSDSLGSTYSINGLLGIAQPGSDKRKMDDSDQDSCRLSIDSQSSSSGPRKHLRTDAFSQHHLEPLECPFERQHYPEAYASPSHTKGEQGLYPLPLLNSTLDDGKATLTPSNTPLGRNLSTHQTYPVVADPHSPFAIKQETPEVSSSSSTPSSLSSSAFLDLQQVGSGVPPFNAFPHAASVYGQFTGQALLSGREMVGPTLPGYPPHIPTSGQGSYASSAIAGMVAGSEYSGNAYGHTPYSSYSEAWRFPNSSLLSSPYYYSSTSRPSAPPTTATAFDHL

SMILES: O=C(C[C@@H]1CC[C@@H]2[C@H](COC[C@H](O)CN2S(=O)(=O)c2ccc(Oc3ccccc3)cc2)O1)NC1CCC1
AC50 [1]: > 52 µM (inactive)
AC50 (HEK293): > 52 µM (inactive)

SMILES: C[C@@H]1CCCCO[C@H](CN(C)C(=O)C2CCCCC2)[C@@H](C)CN([C@@H](C)CO)C(=O)c2cc(NC(=O)Nc3ccc(F)cc3)ccc2O1
AC50 [2]: 48.1 µM (active)
AC50 [3]: 69.9 µM (active)
AC50 [4]: 63.4 µM (active)
AC50 (Paired box protein Pax-8): 4.07 µM (active)
AC50 [5]: 38.4 µM (active)

SMILES: C[C@H]1CN([C@@H](C)CO)C(=O)c2cc(NS(=O)(=O)c3ccc(F)cc3)ccc2O[C@@H]1CN(C)S(=O)(=O)c1ccccc1
AC50 [1]: > 52 µM (inactive)
AC50 (HEK293): > 52 µM (inactive)

SMILES: CCCNC(=O)N(C)C[C@H]1Oc2cc(C#CCC(C)C)ccc2S(=O)(=O)N([C@@H](C)CO)C[C@H]1C
AC50 [6]: 26.5 µM (active)

SMILES: O=S(=O)(c1ccccc1F)N1CC[C@H]2[C@H](CO)Nc3ccc(-c4cccc(F)c4)cc3[C@H]21
AC50 [7]: 46.2 µM (active)

IC50 [8]: 21.9 µM (inactive)
IC50 [9]: 38.6 µM (inactive)
SMILES: c1ccc(-c2nc(NCCCN3CCCCC3)c3ccccc3n2)cc1

IC50 [8]: 11.6 µM (active)
IC50 [9]: 32.5 µM (inactive)
SMILES: Clc1ccccc1-c1cc(NCCCN2CCCCC2)c2ccccc2n1

SMILES: N#C[C@@H]1[C@@H](c2ccc(C3=CCCCC3)cc2)[C@H](CO)N1C(=O)NC1CCCC1
AC50 [10]: 3.06 µM (active)
AC50 [11]: 1.46 µM (active)
AC50 [12]: 35.6 µM (active)
AC50 [13]: 2.61 µM (active)
AC50 [14]: 2.28 µM (active)
